Results as given in paper PMC10620772, “Design, synthesis, and biological evaluation of new pyrimidine-5-carbonitrile derivatives as novel anti-cancer, dual EGFR^WT/COX-2 inhibitors with docking studies” (RSC Advances, 2023).
“And” between values parts separate entries of the source, which are not always exact repeats. Identical values can stand only once.

Assays:
Leukemia subpanel = assay: NCI60 five-dose, subpanel I; type: cell-based, human; details: for GI50: Homo sapiens, read-out: MG-MID (GI50); for GI50 / MG-MID (TGI): subpanel I
Source text: (§1) (2) The molar concentration of the compound responsible for total growth inhibition, also known as total growth inhibition (TGI).
(§2) Regarding subpanel selectivity toward certain cancer type, the method of determining a compound's selectivity index is to divide the full panel MG-MID (μM) value by each single subpanel. Values above six indicate high selectivity against the subpanel; moderate selectivity is denoted by values between three and six. Conversely, compounds are termed nonselective if their selectivity is less than three.[30,37]

melanoma subpanel = assay: NCI60 five-dose, subpanel V; type: cell-based, human; details: for GI50: Homo sapiens, read-out: MG-MID (GI50); for GI50 / MG-MID (TGI): subpanel V; for Selectivity index (GI50) / Selectivity index (TGI): full panel MG-MID / subpanel V
Source text: as §1, §2

ovarian cancer subpanel = assay: NCI60 five-dose, subpanel VI; type: cell-based, human; details: for GI50: Homo sapiens, read-out: MG-MID (GI50); for GI50 / MG-MID (TGI): subpanel VI; for Selectivity index (GI50) / Selectivity index (TGI): full panel MG-MID / subpanel VI
Source text: as §1, §2

renal cancer subpanel = assay: NCI60 five-dose, subpanel VII; type: cell-based, human; details: for GI50: Homo sapiens, read-out: MG-MID (GI50); for GI50 / MG-MID (TGI): subpanel VII; for Selectivity index (GI50) / Selectivity index (TGI): full panel MG-MID / subpanel VII
Source text: as §1, §2

prostate cancer subpanel = assay: NCI60 five-dose, subpanel VIII; type: cell-based, human; details: for GI50: Homo sapiens, read-out: MG-MID (GI50); for GI50 / MG-MID (TGI): subpanel VIII; for Selectivity index (GI50) / Selectivity index (TGI): full panel MG-MID / subpanel VIII
Source text: as §1, §2

breast cancer subpanel = assay: NCI60 five-dose, subpanel IX; type: cell-based, human; details: for GI50: Homo sapiens, read-out: MG-MID (GI50); for GI50 / MG-MID (TGI): subpanel IX; for Selectivity index (GI50) / Selectivity index (TGI): full panel MG-MID / subpanel IX
Source text: as §1, §2

in vitro = details: human
Experimental: (§3) Further perspectives of their mechanisms of action were carried.
(§4) The preliminary in vitro antitumor investigation of our novel potential anticancer candidates was carried out by NCI, MD, USA (www.dtp.nci.nih.gov). […] Moreover, the safety profile of 4e & 4f at normal cells were evaluated.

[1] = test system: FHC (epithelial colon cell line); assay: in vitro; details: human
Experimental: as §3, §4

COX-1 = target: T1, COX-1 (Ovis aries, UniProt P05979); assay: COX-1 inhibitor screening kit (Biovision); type: biochemical; details: means ± SD of three experiments; read-out: COX1 IC50
T1 construct: purchased Biovision K548
T1 sequence (P05979 25-600): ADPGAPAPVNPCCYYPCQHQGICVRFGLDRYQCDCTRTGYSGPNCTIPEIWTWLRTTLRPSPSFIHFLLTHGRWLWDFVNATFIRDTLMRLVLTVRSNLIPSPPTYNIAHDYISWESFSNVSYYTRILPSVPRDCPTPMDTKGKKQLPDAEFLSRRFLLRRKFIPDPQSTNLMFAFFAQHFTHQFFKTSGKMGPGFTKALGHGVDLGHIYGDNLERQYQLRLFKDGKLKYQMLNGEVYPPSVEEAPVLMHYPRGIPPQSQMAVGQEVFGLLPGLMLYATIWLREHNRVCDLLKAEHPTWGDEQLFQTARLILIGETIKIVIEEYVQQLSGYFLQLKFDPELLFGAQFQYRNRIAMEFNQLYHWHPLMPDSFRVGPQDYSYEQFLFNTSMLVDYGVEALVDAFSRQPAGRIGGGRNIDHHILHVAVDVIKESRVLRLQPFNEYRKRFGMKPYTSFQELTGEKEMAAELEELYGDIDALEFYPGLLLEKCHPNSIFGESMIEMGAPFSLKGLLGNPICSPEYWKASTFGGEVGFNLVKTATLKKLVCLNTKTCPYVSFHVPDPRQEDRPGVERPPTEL
Experimental: The inhibitory activity of novel 4e & 4f against COX-1/COX-2 was evaluated by using Biovision COX-1/COX-2 Inhibitor Screening Kit (Catalog #: K548) and (Catalog #: K547), respectively.

Colo 205 cells = assay: Cell cycle analysis by flow cytometry; type: cell-based, human; details: treated at IC50; for % G0–G1 / % G2/M / % S: DNA content
Experimental: Inhibition of the EGFR^WT/COX-2 pathway has been linked to alterations in cell survival and proliferation, as reported.[22,40]
(§5) Cell Culture Unit, VACSERA, Cairo, Egypt, conducted an apoptosis investigation.
Results reported as DNA% of each cell cycle phase: (S, G1, G2, M). The following reported procedure was followed; (1) applying compounds 4e and 4f on Colo 205 cell line separately, then the Colo 205 was cultured. (2) The cells were collected in PBS diluted by nanopure water as a single cell suspension (by adding trypsine to dissociate cells). (3) Centrifuge cells by 500×g for 5 min, decant the supernatant. (4) Using PBS wash the cells, gently tapping the tube to resuspend cells. (5) In ice bath fix the cells in 66% cooled ethanol, stored in +4 °C 2 h at least (6) put the sample on bench at room temperature, inverted tube gently to resuspend cells. (7) Centrifuge, discard supernatant, wash and resuspend cells once more time. (8) Gently adding PI solution with RNAase (preventing RNA staining and interfering results), (9) Incubate samples in R.T, dark conditions for 20 min (10) transfer samples into ice, dark conditions. (11) Genteelly tapping to resuspend cells which settled during incubation step. (12) Put sample into flow cytometer and run it. Detect the fluorescence of protium iodide in FL2.[41,42] Additional assessment of the pro-apoptotic effect was performed by using Annexin V-FITC and propidium iodide.

Colo-205 cells = assay: Annexin V-FITC apoptosis assay; type: cell-based, human; details: treated at IC50
Source text: The Annexin V-FITC/propidium iodide dual staining assay was used to assess the effect of compound (4e and 4f) on inducing apoptosis in Colo-205 cells. This assay allows for the identification of early stages of apoptosis before the loss of cell membrane integrity, allowing measurements of apoptotic death kinetics in relation to the cell cycle.
as §5
Centrifuge to collect cells, using binding buffer to resuspend cells. Pipette 5 μl of Annexine-V and 5 μl. Subsequently, incubate sample for 5 min. In R.T, dark condition. Detect Annexine V-FITC binding cells detected by FACSCaliber flow cytometer (Ex = 488 nm; Em = 530 nm) which indicate apoptotic cells. On the other side the PI stained cells detected by FL2 flow cytometer, which detect necrotic cells.[53,54]

[2] = test system: active caspase-3 in Colo 205 cells; assay: Caspase-3 ELISA; type: cell-based, human; details: for Caspase 3: Colo_205, treated at IC50
Source text: Among the death proteases, the caspases family of cysteine-dependent aspartate-directed proteases is significant. There are multiple levels where caspase activation and activity are regulated.[43] Caspases are activated during apoptosis, which eventually results in cell death by deactivating a number of signals.[44] One of the crucial survival signals, EGFR, may be the target of caspase activation to ensure the completion of apoptosis.[45] Additionally, it has been reported that activating caspase-3 through COX-2 inhibition enhances apoptosis.[40] Therefore, the impact of the novel compounds on the level of caspase 3 was examined.
(1) Into the antibody coated wells add 100 μl of standard diluent buffer excepts wells wich detected to be the chromogen blank, then add 100 μl. […] (10) Decant liquid from wells then wash, (11) pipette 100 μl of chromogen substrate to all wells, The well fluid will start to become blue. (12) 30 minutes should be spent incubating at room temperature in the dark. (13) To each well, add 100 μl of stop solution. To mix, lightly tap the plate's edge. The well solution should transform from blue to yellow. (14) Read the absorbance of each well using a microtiter plate reader at 450 nm. (15) Draw the standard curve using a curve fitting program. (16) The standard curve can be used to determine the concentrations for unknown samples and controls.[55]

Row | SMILES | GI50 (Leukemia subpanel) | Selectivity index (GI50) (Leukemia subpanel; full panel MG-MID / subpanel I) | MG-MID (TGI) (Leukemia subpanel) | GI50 (melanoma subpanel) | Selectivity index (GI50) (melanoma subpanel) | Selectivity index (TGI) (melanoma subpanel) | MG-MID (TGI) (melanoma subpanel) | GI50 (ovarian cancer subpanel) | Selectivity index (GI50) (ovarian cancer subpanel) | Selectivity index (TGI) (ovarian cancer subpanel) | MG-MID (TGI) (ovarian cancer subpanel) | GI50 (renal cancer subpanel) | Selectivity index (GI50) (renal cancer subpanel) | Selectivity index (TGI) (renal cancer subpanel) | MG-MID (TGI) (renal cancer subpanel) | GI50 (prostate cancer subpanel) | Selectivity index (GI50) (prostate cancer subpanel) | Selectivity index (TGI) (prostate cancer subpanel) | MG-MID (TGI) (prostate cancer subpanel) | GI50 (breast cancer subpanel) | further results
1 | N#Cc1c(-c2ccc(F)cc2)nc(SCc2ccc(F)cc2)nc1N1CCNCC1 [4f, 2-((4-Fluorobenzyl)thio)-4-(4-fluorophenyl)-6-(piperazin-1-yl) pyrimidine-5-carbonitrile] | 7.63 µM | 1.76 | 21.84 µM | 13.9 µM | 0.96 | 1.00 | 26.43 µM | 15 µM | 0.89 | 0.86 | 30.41 µM | 23.2 µM | 0.57 | 0.94 | 28.11 µM | 14.7 µM | 0.91 | 0.89 | 29.50 µM | 11.8 µM | Selectivity index (TGI) (Leukemia subpanel; full panel MG-MID / subpanel I): 1.21; Selectivity index (GI50) (breast cancer subpanel): 1.14; Selectivity index (TGI) (breast cancer subpanel): 0.98; MG-MID (TGI) (breast cancer subpanel): 26.88 µM; IC50 (in vitro): 46.3 µM; selectivity ratio (in vitro): 25.3; IC50 FHC [1]: 28.25 µM; IC50 (COX-1): 31.6 ± 0.89 µM; % G0–G1 (Colo 205 cells): 55.01%; % G2/M (Colo 205 cells): 5.39%; % S (Colo 205 cells): 39.6%; Cell cycle comment (Colo 205 cells): Cell growth arrest@ G1; Increase of cells at G0–G1 phase vs control (Colo 205 cells): ~1.1 fold; Apoptosis early (Colo-205 cells): 26.15%; Apoptosis late (Colo-205 cells): 12.71%; Apoptosis total (Colo-205 cells): 43.12%; Necrosis (Colo-205 cells): 4.26%; Caspase 3 fold vs control ([2]; Colo 205, treated at IC50): 8 fold and 7.88 fold; Caspase 3 [2]: 656.4 ± 13.1 pg·mL
2 | N#Cc1c(-c2ccc(F)cc2)nc(SCc2ccccc2)nc1N1CCNCC1 [4e, 2-(Benzylthio)-4-(4-fluorophenyl)-6-(piperazin-1-yl) pyrimidine-5-carbonitrile] | 5.59 µM | 1.90 | 16.17 µM | 13 µM | 0.82 | 0.93 | 25.21 µM | 13.2 µM | 0.81 | 0.83 | 28.35 µM | 12.2 µM | 0.87 | 0.92 | 25.75 µM | 13.4 µM | 0.79 | 0.86 | 27.40 µM | 9.57 µM | Selectivity index (GI50) (breast cancer subpanel): 1.11; Selectivity index (TGI) (breast cancer subpanel): 0.98; MG-MID (TGI) (breast cancer subpanel): 23.96 µM; IC50 (in vitro): 28.2 µM; selectivity ratio (in vitro): 17; IC50 FHC [1]: 46.34 µM; IC50 (COX-1): 11 ± 0.31 µM; % G0–G1 (Colo 205 cells): 61.31%; % G2/M (Colo 205 cells): 2.87%; % S (Colo 205 cells): 35.82%; Cell cycle comment (Colo 205 cells): Cell growth arrest@ G1; Increase of cells at G0–G1 phase vs control (Colo 205 cells): ~1.2 fold; Apoptosis early (Colo-205 cells): 19.91%; Apoptosis late (Colo-205 cells): 25.22%; Apoptosis total (Colo-205 cells): 51.07%; Necrosis (Colo-205 cells): 5.94%; Caspase 3 [2]: 808.9 ± 11.9 pg·mL
